The values that follow come from ChEMBL document CHEMBL3045416, “Synthesis and biological evaluation of new curcumin derivatives as antioxidant and antitumor agents” (Med Chem Res, 2013).

Series [1] in a line: Induction of Homo sapiens (human) RBC haemolysis at 2 ug/ml by spectrophotometric anlaysis. Format: cell-based, Erythrocyte. Conditions: red blood cells, read-out: Activity.
The nature of series [2]: Antioxidant activity assessed as inhibition of ABTS radical production at 1 mg/ml. Format: functional.
Series [3] concerns WI-38. The series is described as follows: Cytotoxicity against Homo sapiens (human) WI38 cells assessed as cell viability at 20 ug/ml by trypan blue assay. Format: functional. The following applies: read-out: Activity.
In series [4] the test system is MCF7. In words: Cytotoxicity against Homo sapiens (human) MCF7 cells assessed as cell viability at 20 ug/ml by trypan blue assay. Format: functional. The following applies: read-out: Activity.
Series [5] has as its system HepG2. In words: Cytotoxicity against Homo sapiens (human) HepG2 cells assessed as cell viability at 20 ug/ml by trypan blue assay. Conditions: read-out: Activity. Format: functional.
Series [6] deals with Vero. In words: Cytotoxicity against Chlorocebus aethiops (African green monkey) Vero cells assessed as cell viability at 20 ug/ml by trypan blue assay. The series is classed as functional. The following applies: Chlorocebus sabaeus, read-out: Activity.
The nature of series [7]: Antihaemolysis activity in Homo sapiens (human) RBC assessed as inhibition of ABTS-induced haemolysis at 20 ug/ml incubated for 30 min prior to ABTS-challenge by spectrophotometric analysis. Format: functional. Conditions: Erythrocyte.
A short description of series [8]: Antioxidant activity assessed as inhibition of ABTS radical production at 2 mM. The series is classed as functional.

Turning to `CC(C)(C(=O)/C=C/c1ccccc1)C(=O)/C=C/c1ccccc1`, the hemolysis at 2 ug/ml in series [1] amounted to 100%. Besides, the inhibition in series [2] worked out at 4.84%.
With `COc1ccc(OC)c(/C=C2\CCCC3=C2OC(N)=C(C#N)C3c2cc(OC)ccc2OC)c1` (configuration not stated), the inhibition in series [2] is 0.38%.
With `CCOc1ccc(/C=C/C(=O)C(CC)(CC)C(=O)/C=C/c2ccc(OCC)c(OC)c2)cc1OC`, the viability at 20 µg/mL stood at 82% in series [3], 94% in series [4], 78% in series [5] and 88% in series [6]. Besides, the inhibition in series [2] amounted to 26.4%.
For `COc1cc(/C=C2\CCCC3=C2OC(N)=C(C#N)C3c2ccc(O)c(OC)c2)ccc1O` (configuration not stated), the hemolysis at 2 ug/ml in series [1] was determined as 100%. The viability at 20 µg/mL in series [3] was determined as 84%; in series [4], 79%; in series [5] it was 81%; in series [6], 82%. Further, the inhibition in series [2] stood at 57.8%.
Take `N#CC1=C(N)OC2=C(CCC/C2=C\c2ccc(Cl)cc2)C1c1ccc(Cl)cc1` (configuration not stated): in series [2], the inhibition is 1.55%.
With `COc1cc(/C=C2\CCC/C(=C\c3ccc(O)c(OC)c3)C2=O)ccc1O` [CYCLOVALONE], the viability at 20 µg/mL in series [3] was 58%; in series [4], 32%; in series [5] it was 28%; in series [6], 69%. In addition, in series [2], the inhibition was 74.2%.
`COc1ccc(/C=C2\CCCC3C2=NN(c2ccc(Br)cc2)C3c2ccc(OC)cc2)cc1` (configuration not stated): the hemolysis at 2 ug/ml in series [1] amounted to 100%. The inhibition in series [2] amounted to 5.03%.
For `COc1ccc(OC)c(/C=C2\CCCC3C2=NN(c2ccc(Br)cc2)C3c2cc(OC)ccc2OC)c1` (configuration not stated) the same measures were 100% and 0.77%.
Take `COc1ccc(OC)c(/C=C/C(=O)C(C)(C)C(=O)/C=C/c2cc(OC)ccc2OC)c1`: the hemolysis at 2 ug/ml in series [1] worked out at 100%. In addition, the viability at 20 µg/mL came to 80% in series [3], 79% in series [4], 84% in series [5] and 74% in series [6]. Moreover, in series [2], the inhibition was 3.68%.
As to `COc1ccc(/C=C2\CCCC3C2=NN(c2ccc(Br)cc2)C3c2ccc(OC)c(OC)c2)cc1OC` (configuration not stated), the hemolysis at 2 ug/ml in series [1] was 100%. In series [2], the inhibition worked out at 0.19%.
For `COc1ccc(/C=C2\CCCC/C(=C\c3ccc(OC)cc3)C2=O)cc1` the same measures were 100% and 1.74%.
Consider `CC(C)(C(=O)/C=C/c1ccc(Cl)cc1)C(=O)/C=C/c1ccc(Cl)cc1`, for which, in series [1], the hemolysis at 2 ug/ml came to 100%. For the same compound, in series [2], the inhibition was 2.32%.
With `O=c1[nH]cc(F)c(=O)[nH]1` [FLUOROURACIL], the viability at 20 µg/mL in series [3], in series [4], in series [5] and in series [6] was 0% in each case.
Turning to `Brc1ccc(N2N=C3/C(=C/c4ccccc4)CCCC3C2c2ccccc2)cc1` (configuration not stated), the hemolysis at 2 ug/ml in series [1] worked out at 100%. Besides, the inhibition in series [2] came out at 1.74%.
In the case of `COc1cc(/C=C/C(=O)C(C)(C)C(=O)/C=C/c2ccc(O)c(OC)c2)ccc1O`, the viability at 20 µg/mL was 78% in series [3], 55% in series [4], 47% in series [5] and 82% in series [6]. Further, the inhibition in series [2] worked out at 52.9%.
As for `O=C1/C(=C/c2ccccc2)CCC/C1=C\c1ccccc1`, in series [2], the inhibition stood at 1.93%.
Consider `Clc1ccc(/C=C2\CCCC3C2=NN(c2ccc(Br)cc2)C3c2ccc(Cl)cc2)cc1` (configuration not stated), for which the hemolysis at 2 ug/ml in series [1] stood at 100%. The inhibition in series [2] came out at 2.9%.
For `COc1ccc(/C=C/C(=O)C(C)(C)C(=O)/C=C/c2ccc(OC)cc2)cc1`, in that order: 100% and 7.75%.
Regarding `Oc1ccc(/C=C2\CCCC3C2=NNC3c2ccc(O)cc2)cc1` (configuration not stated), the viability at 20 µg/mL was found to be 88% in series [3], 75% in series [4], 89% in series [5] and 76% in series [6]. For the same compound, in series [2], the inhibition stood at 54.5%.
Turning to `COc1ccc(/C=C2\CCC/C(=C\c3ccc(OC)c(OC)c3)C2=O)cc1OC`, the hemolysis at 2 ug/ml in series [1] was determined as 100%. In series [2], the inhibition was 0%.
Consider `COc1cc(/C=C2\CCCC3C2=NNC3c2ccc(O)c(OC)c2)ccc1O` (configuration not stated), for which the viability at 20 µg/mL was found to be 65% in series [3], 19% in series [4], 21% in series [5] and 12% in series [6]. Further, the inhibition in series [2] was 76.7%.
With `COc1ccc(OC)c(/C=C2\CCCCC3C2=NN(c2ccc(Br)cc2)C3c2cc(OC)ccc2OC)c1` (configuration not stated), the hemolysis at 2 ug/ml in series [1] stood at 100%.
Take `N#CC1=C(N)OC2=C(CCC/C2=C\c2ccccc2)C1c1ccccc1` (configuration not stated): the inhibition in series [2] was found to be 0.19%.
Consider `CC(C)(C(=O)/C=C/c1ccc(O)cc1)C(=O)/C=C/c1ccc(O)cc1`, for which the hemolysis at 2 ug/ml in series [1] was 100%. For the same compound, the viability at 20 µg/mL in series [3] was 88%; in series [4], 64%; in series [5] it was 57%; in series [6], 82%. For the same compound, the inhibition in series [2] was found to be 28.7%.
For the compound `COc1ccc(/C=C2\CCCC3=C2OC(N)=C(C#N)C3c2ccc(OC)c(OC)c2)cc1OC` (configuration not stated), in series [1], the hemolysis at 2 ug/ml was 100%. Moreover, the viability at 20 µg/mL in series [3] worked out at 12%; in series [4] it was 21%; in series [5], 19%; in series [6], 65%. In addition, the inhibition in series [2] worked out at 16.9%.
As for `COc1ccc(OC)c(/C=C2\CCC/C(=C\c3cc(OC)ccc3OC)C2=O)c1`, the hemolysis at 2 ug/ml in series [1] was found to be 100%. In addition, the inhibition in series [2] was 1.16%.
In the case of `COc1ccc(/C=C2\CCCCC3C2=NN(c2ccc(Br)cc2)C3c2ccc(OC)c(OC)c2)cc1OC` (configuration not stated), the hemolysis at 2 ug/ml in series [1] is 100%.
Consider `COc1ccc(OC)c(/C=C2\CCCC3C2=NNC3c2cc(OC)ccc2OC)c1` (configuration not stated), for which, in series [1], the hemolysis at 2 ug/ml was determined as 100%. Further, the viability at 20 µg/mL in series [3] was 100%; in series [4], 82%; in series [5], 78%; in series [6] it was 67%. Moreover, the inhibition in series [2] turned out to be 25.6%.
Turning to `COc1ccc(/C=C/C(=O)C(C)(C)C(=O)/C=C/c2ccc(OC)c(OC)c2)cc1OC`, the hemolysis at 2 ug/ml in series [1] amounted to 100%. The viability at 20 µg/mL in series [3] was 75%; in series [4], 87%; in series [5] it was 78%; in series [6], 89%. The inhibition in series [2] amounted to 12.6%.
In the case of `O=C1/C(=C/c2ccc(Cl)cc2)CCC/C1=C\c1ccc(Cl)cc1`, the hemolysis at 2 ug/ml in series [1] is 100%. Moreover, the inhibition in series [2] turned out to be 0.58%.
On to `COc1ccc(/C=C2\CCCC/C(=C\c3ccc(OC)c(OC)c3)C2=O)cc1OC`, for which the hemolysis at 2 ug/ml in series [1] was found to be 100%. Besides, in series [2], the inhibition came out at 0.77%.
For `COc1ccc(/C=C2\CCCC3=C2OC(N)=C(C#N)C3c2ccc(OC)cc2)cc1` (configuration not stated), the inhibition in series [2] is 0.38%.
On to `N#CC1=C(N)OC2=C(CCC/C2=C\c2ccc(O)cc2)C1c1ccc(O)cc1` (configuration not stated), for which the hemolysis at 2 ug/ml in series [1] is 100%. The viability at 20 µg/mL turned out to be 79% in series [3], 82% in series [4], 78% in series [5] and 83% in series [6]. The inhibition in series [2] was found to be 16.7%.
`O=C1/C(=C/c2ccc(O)cc2)CCC/C1=C\c1ccc(O)cc1`: the hemolysis at 2 ug/ml in series [1] turned out to be 100%. The viability at 20 µg/mL worked out at 77% in series [3], 74% in series [4], 88% in series [5] and 84% in series [6]. Also, the inhibition in series [2] is 9.49%.
As to `O=C1O[C@H]([C@@H](O)CO)C(O)=C1O` [ASCORBIC ACID], the inhibition at 20 µg/mL in series [7] turned out to be 17.6%. Further, the inhibition in series [8] stood at 80.8%.
For the compound `COc1ccc(OC)c(/C=C2\CCCC/C(=C\c3cc(OC)ccc3OC)C2=O)c1`, the hemolysis at 2 ug/ml in series [1] turned out to be 100%. In series [2], the inhibition was 5.03%.
Regarding `COc1ccc(/C=C2\CCCCC3C2=NN(c2ccc(Br)cc2)C3c2ccc(OC)cc2)cc1` (configuration not stated), in series [1], the hemolysis at 2 ug/ml worked out at 100%.
Turning to `COc1ccc(/C=C2\CCC/C(=C\c3ccc(OC)cc3)C2=O)cc1`, the hemolysis at 2 ug/ml in series [1] is 100%. Also, the inhibition in series [2] is 1.35%.
As for `COc1cc(/C=C/C(=O)CC(=O)/C=C/c2ccc(O)c(OC)c2)ccc1O` [CURCUMIN], the viability at 20 µg/mL in series [3] stood at 51%; in series [4], 19%; in series [5], 18%; in series [6] it was 24%. In addition, the inhibition in series [2] was 87.6%.
